# Experimental data published in the supplement of paper PMC11061612.
# Assays:
# [1] = system: NCI-H211 (Small Cell Lung Carcinoma); test: Bliss excess, mean over the matrix (fraction); higher = more synergy
# Procedure, shortened: (§1)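 Bliss excess equals the observed combination effect minus the expected value EA + EB − EA·EB, where EA and EB are the effects of each agent alone. Combination Emax is the second-highest inhibition within the matrix. Inhibition was scaled from CellTiter-Glo 2.0 luminescence, with 0 set by vehicle wells and 1 by blank wells, after 72 hours of two-drug dosing of cells plated in 1536-well plates.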
# [2] = system: JiyoyeP-2003 (Burkitt's Lymphoma); test: combination Emax (second highest fraction inhibited in the dose matrix, 72 h); higher = more inhibition; extreme values may be limits of the assay
# Procedure, shortened: as §1
# [3] = system: NCI-H211 (Small Cell Lung Carcinoma); test: as above
# Procedure, shortened: as §1
# [4] = system: NCI-H2369 (Mesothelioma); test: as above
# Procedure, shortened: as §1
SMILES,Bliss excess [1],combination Emax [2],combination Emax [3],combination Emax [4]
"NC1(C(=O)N[C@@H](CCO)c2ccc(Cl)cc2)CCN(c2ncnc3[nH]ccc23)CC1 [Capivasertib] + COc1nnc2ccc(N3CCC(c4ccc(OCCN5CCN(C)C(=O)[C@H]5C)cc4)CC3)nn12 [AZD5153] (first compound max 10 µM, 7x7, partner max 1 µM)",-0.0113,0.912,1,0.268
"COc1nnc2ccc(N3CCC(c4ccc(OCCN5CCN(C)C(=O)[C@H]5C)cc4)CC3)nn12 [AZD5153] + Cn1cnc2c(F)c(Nc3ccc(Br)cc3Cl)c(C(=O)NOCCO)cc21 [Selumetinib] (first compound max 1 µM, 7x7, partner max 10 µM)",0.0477,0.839,1,0.368
"NC1(C(=O)N[C@@H](CCO)c2ccc(Cl)cc2)CCN(c2ncnc3[nH]ccc23)CC1 [Capivasertib] + CC(=O)c1c(C)c2cnc(Nc3ccc(N4CCNCC4)cn3)nc2n(C2CCCC2)c1=O [Palbociclib] (first compound max 10 µM, 7x7, partner max 10 µM)",0.0926,0.683,0.59,0.259
"Cc1nc(Nc2ncc(C(=O)Nc3c(C)cccc3Cl)s2)cc(N2CCN(CCO)CC2)n1 [Dasatinib] + CC(=O)Nc1cccc(-n2c(=O)n(C3CC3)c(=O)c3c(Nc4ccc(I)cc4F)n(C)c(=O)c(C)c32)c1 [Trametinib] (first compound max 2 µM, 7x7, partner max 1 µM)",0.0556,0.715,0.456,0.277
"NC1(C(=O)N[C@@H](CCO)c2ccc(Cl)cc2)CCN(c2ncnc3[nH]ccc23)CC1 [Capivasertib] + C[C@@H]1COCCN1C2=NC(=NC(=C2)C3(CC3)[S@](=N)(=O)C)C4=C5C=CNC5=NC=C4 [AZD6738] (first compound max 10 µM, 7x7, partner max 10 µM)",0.0232,0.93,0.665,0.338
"Cn1cnc2c(F)c(Nc3ccc(Br)cc3Cl)c(C(=O)NOCCO)cc21 [Selumetinib] + CC(C)n1c(=O)n(C)c2cnc3cc(F)c(-c4ccc(OCCCN5CCCCC5)nc4)cc3c21 [AZD1390] (first compound max 10 µM, 7x7, partner max 0.3 µM)",-0.0015,0.191,0.239,0.129
"COc1nnc2ccc(N3CCC(c4ccc(OCCN5CCN(C)C(=O)[C@H]5C)cc4)CC3)nn12 [AZD5153] + C[C@@H]1COCCN1C2=NC(=NC(=C2)C3(CC3)[S@](=N)(=O)C)C4=C5C=CNC5=NC=C4 [AZD6738] (first compound max 1 µM, 7x7, partner max 10 µM)",-0.008,0.95,1,0.363
"COc1nnc2ccc(N3CCC(c4ccc(OCCN5CCN(C)C(=O)[C@H]5C)cc4)CC3)nn12 [AZD5153] + CCN(CCO)CCCOc1ccc2c(Nc3cc(CC(=O)Nc4cccc(F)c4)[nH]n3)ncnc2c1 [AZD2811] (first compound max 1 µM, 7x7, partner max 1 µM)",-0.0081,0.846,1,0.344
"COc1nnc2ccc(N3CCC(c4ccc(OCCN5CCN(C)C(=O)[C@H]5C)cc4)CC3)nn12 [AZD5153] + C=CCn1c(=O)c2cnc(Nc3ccc(N4CCN(C)CC4)cc3)nc2n1-c1cccc(C(C)(C)O)n1 [AZD1775] (first compound max 1 µM, partner max 1 µM)",-0.0008,0.944,0.993,0.461
"C[C@@H](c1ccc2nccn2c1)n1nnc2ncc(-c3cnn(C)c3)nc21 [Savolitinib] + Cc1c2c(nn1C)CSCc1cc(n(C)n1)CSc1cc(c3ccccc3c1)OCCCc1c(C(=O)O)n(C)c3c-2c(Cl)ccc13 [AZD5991] (first compound max 1 µM, 7x7, partner max 1 µM)",0.033,0.166,0.859,0.116
"CC(=O)c1c(C)c2cnc(Nc3ccc(N4CCNCC4)cn3)nc2n(C2CCCC2)c1=O [Palbociclib] + Cc1c2c(nn1C)CSCc1cc(n(C)n1)CSc1cc(c3ccccc3c1)OCCCc1c(C(=O)O)n(C)c3c-2c(Cl)ccc13 [AZD5991] (first compound max 10 µM, 7x7, partner max 1 µM)",0.118,0.588,0.905,0.199
"Cn1cnc2c(F)c(Nc3ccc(Br)cc3Cl)c(C(=O)NOCCO)cc21 [Selumetinib] + C=CCn1c(=O)c2cnc(Nc3ccc(N4CCN(C)CC4)cc3)nc2n1-c1cccc(C(C)(C)O)n1 [AZD1775] (first compound max 10 µM, partner max 1 µM)",0.0248,0.947,0.831,0.276
"CC(=O)c1c(C)c2cnc(Nc3ccc(N4CCNCC4)cn3)nc2n(C2CCCC2)c1=O [Palbociclib] + Cn1cnc2c(F)c(Nc3ccc(Br)cc3Cl)c(C(=O)NOCCO)cc21 [Selumetinib] (first compound max 10 µM, 7x7, partner max 10 µM)",0.0861,0.587,0.657,0.144
"Cn1cnc2c(F)c(Nc3ccc(Br)cc3Cl)c(C(=O)NOCCO)cc21 [Selumetinib] + C[C@@H]1COCCN1C2=NC(=NC(=C2)C3(CC3)[S@](=N)(=O)C)C4=C5C=CNC5=NC=C4 [AZD6738] (first compound max 10 µM, 7x7, partner max 10 µM)",-0.0285,0.947,0.606,0.187
"NC1(C(=O)N[C@@H](CCO)c2ccc(Cl)cc2)CCN(c2ncnc3[nH]ccc23)CC1 [Capivasertib] + CC(C)n1c(=O)n(C)c2cnc3cc(F)c(-c4ccc(OCCCN5CCCCC5)nc4)cc3c21 [AZD1390] (first compound max 10 µM, 7x7, partner max 0.3 µM)",-0.0294,0.685,0.488,0.222
"C[C@@H](c1ccc2nccn2c1)n1nnc2ncc(-c3cnn(C)c3)nc21 [Savolitinib] + CC1(C)CCC(CN2CCN(c3ccc(C(=O)NS(=O)(=O)c4ccc(NCC5CCOCC5)c([N+](=O)[O-])c4)c(Oc4cnc5[nH]ccc5c4)c3)CC2)=C(c2ccc(Cl)cc2)C1 [Venetoclax] (first compound max 1 µM, 7x7, partner max 1 µM)",0.0317,0.162,0.744,0.096
"COc1nnc2ccc(N3CCC(c4ccc(OCCN5CCN(C)C(=O)[C@H]5C)cc4)CC3)nn12 [AZD5153] + Cc1c2c(nn1C)CSCc1cc(n(C)n1)CSc1cc(c3ccccc3c1)OCCCc1c(C(=O)O)n(C)c3c-2c(Cl)ccc13 [AZD5991] (first compound max 1 µM, 7x7, partner max 1 µM)",-0.0175,0.918,1,0.337
"Cn1cnc2c(F)c(Nc3ccc(Br)cc3Cl)c(C(=O)NOCCO)cc21 [Selumetinib] + CCN(CCO)CCCOc1ccc2c(Nc3cc(CC(=O)Nc4cccc(F)c4)[nH]n3)ncnc2c1 [AZD2811] (first compound max 10 µM, 7x7, partner max 1 µM)",-0.0446,0.235,0.938,0.203
"COc1cc2ncnc(Nc3ccc(F)c(Cl)c3)c2cc1OCCCN1CCOCC1 [Gefitinib] + CC(C)n1c(=O)n(C)c2cnc3cc(F)c(-c4ccc(OCCCN5CCCCC5)nc4)cc3c21 [AZD1390] (first compound max 10 µM, 7x7, partner max 0.3 µM)",-0.053,0.119,0.227,0.0747
"CC(=O)Nc1cccc(-n2c(=O)n(C3CC3)c(=O)c3c(Nc4ccc(I)cc4F)n(C)c(=O)c(C)c32)c1 [Trametinib] + Cc1nc(-c2cn3c(n2)-c2ccc(-c4cnn(C(C)(C)C(N)=O)c4)cc2OCC3)n(C(C)C)n1 [Taselisib] (first compound max 1 µM, 7x7, partner max 10 µM)",–,0.544,–,0.294
"Cc1c2c(nn1C)CSCc1cc(n(C)n1)CSc1cc(c3ccccc3c1)OCCCc1c(C(=O)O)n(C)c3c-2c(Cl)ccc13 [AZD5991] + CN(C)CCCOc1ccc(-c2ccc3ncc4c(c3c2)n(C2CCOCC2)c(=O)n4C)cn1 [AZD0156] (first compound max 1 µM, 7x7, partner max 1 µM)",–,0.756,–,0.208
"C[C@@H](c1ccc2nccn2c1)n1nnc2ncc(-c3cnn(C)c3)nc21 [Savolitinib] + CN(CC[C@H](CSC1=CC=CC=C1)NC2=C(C=C(C=C2)S(=O)(=O)NC(=O)C3=CC=C(C=C3)N4CCC(CC4)[C@H](C5=CC=CC=C5C6=CC=C(C=C6)Cl)O)S(=O)(=O)C(F)(F)F)CCO [AZD4320] (first compound max 1 µM, 7x7, partner max 1 µM)",–,0.439,–,0.114
"Cc1c2c(nn1C)CSCc1cc(n(C)n1)CSc1cc(c3ccccc3c1)OCCCc1c(C(=O)O)n(C)c3c-2c(Cl)ccc13 [AZD5991] + C1CN(CCC1(C(=O)N[C@@H](CCO)C2=CC=C(C=C2)Cl)N)C3=NC=NC4=C3C=CN4 [Capivasertib] (first compound max 1 µM, 7x7, partner max 3 µM)",–,0.857,–,0.22
"Cc1c2c(nn1C)CSCc1cc(n(C)n1)CSc1cc(c3ccccc3c1)OCCCc1c(C(=O)O)n(C)c3c-2c(Cl)ccc13 [AZD5991] + C=CCn1c(=O)c2cnc(Nc3ccc(N4CCN(C)CC4)cc3)nc2n1-c1cccc(C(C)(C)O)n1 [AZD1775] (first compound max 1 µM, partner max 1 µM)",–,0.987,–,0.327
"CN(CCO)CC[C@H](CSc1ccccc1)Nc1ccc(S(=O)(=O)NC(=O)c2ccc(N3CCC([C@@H](O)c4ccccc4-c4ccc(Cl)cc4)CC3)cc2)cc1S(=O)(=O)C(F)(F)F [AZD4320] + CN(C)CCCOc1ccc(-c2ccc3ncc4c(c3c2)n(C2CCOCC2)c(=O)n4C)cn1 [AZD0156] (first compound max 1 µM, 7x7, partner max 1 µM)",–,0.645,–,0.0933
"CC1(C)CCC(CN2CCN(c3ccc(C(=O)NS(=O)(=O)c4ccc(NCC5CCOCC5)c([N+](=O)[O-])c4)c(Oc4cnc5[nH]ccc5c4)c3)CC2)=C(c2ccc(Cl)cc2)C1 [Venetoclax] + CCN(CCO)CCCOc1ccc2c(Nc3cc(CC(=O)Nc4cccc(F)c4)[nH]n3)ncnc2c1 [AZD2811] (first compound max 1 µM, 7x7, partner max 1 µM)",–,0.382,–,0.173
